Assay results as given in patent publication US7125990B2, “Imidazolyl derivatives as corticotropin releasing factor inhibitors” (Bristol-Myers Squibb COmpany, priority 2001, dated 2006).

molecular target: T1, CRF1 receptors (Homo sapiens, UniProt P34998); assay: CRF1 receptor radioligand binding assay ([125I]-oCRF competition, IMR-32 cell membranes); details: IMR-32 cell membranes, [125I]-oCRF 100 pM; read-out: Ki (CRF-1R)
T1 construct: endogenous in cells; host or cells: IMR-32 cells, transformed with 2.5 µM 5'-bromo-2'-deoxyuridine for 10 days; membrane preparation
T1 sequence (P34998 24-415): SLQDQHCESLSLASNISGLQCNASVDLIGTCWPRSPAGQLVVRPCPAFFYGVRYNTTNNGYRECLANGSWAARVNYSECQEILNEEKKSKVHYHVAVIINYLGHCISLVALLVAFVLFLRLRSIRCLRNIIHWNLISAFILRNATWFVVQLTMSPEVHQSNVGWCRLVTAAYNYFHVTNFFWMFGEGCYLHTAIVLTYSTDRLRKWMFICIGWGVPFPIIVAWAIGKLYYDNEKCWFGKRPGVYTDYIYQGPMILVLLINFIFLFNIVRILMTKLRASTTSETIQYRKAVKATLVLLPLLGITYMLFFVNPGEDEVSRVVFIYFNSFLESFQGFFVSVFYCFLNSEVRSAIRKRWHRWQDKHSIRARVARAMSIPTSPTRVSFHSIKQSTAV
Method: CRF1 receptor antagonists, by occupying the same receptors, blocks the accessibility of the receptors to CRF, a hypothalamic factor mediating body's responses to physiological and psychological stress. The following radioligand binding assay examines the ability of the antagonists to bind the CRF1 receptors by assessing their ability to compete with binding of CRF to the receptors in cell membrane.
Tissue culture and membrane preparation. IMR-32 cells were grown at 37° C. in 5% CO2 as a monolayer in medium consisting of MEM supplemented with 10% heat-inactivated fetal bovine serum, 0.1 mM nonessential amino acids, 1 mM sodium pyruvate and 2 mM L-glutamine. […] After transformation, cells were rinsed twice with phosphate-buffered saline, and incubated for 10–15 min. at 4° C. in homogenization buffer consisting of 50 mM Tris (pH 7.2), 10 mM MgCl2 and 2 mM EGTA. Cells were transferred from plates to polypropylene tubes (16×100 mm), homogenized and centrifuged at 32,000×g for 15 min. Pellets were resuspended by homogenization in buffer and centrifuged at 32,000×g for 15 min. Pellets were resuspended in homogenization buffer then stored at −80° C. until needed.
Radioligand binding assays. […] The assay buffer consisted of 50 mM Tris (pH 7.2), 10 mM MgCl2, 0.5% BSA, 0.005% Triton X-100, 10 μg/mL aprotinin and 10 μg/mL leupeptin. Assays were stopped by addition of ice-cold wash buffer (50 mM Tris, pH 7.4 and 0.2% BSA). Filtration over glass fiber filters (Whatman GF/B) previously soaked in 50 mM Tris, pH 7.2 and 1% BSA was carried out using a Brandel cell harvester. Filters were washed with 10 mL of ice-cold wash buffer. Non-specific binding was defined with 10 μM oCRF. IC50 values for oCRF and test compounds were calculated by nonlinear regression using a one-site binding curve (GraphPad Prism).

| Structure (SMILES) | Ki [nM] |
| --- | --- |
| CCCN(Cc1cccc(F)c1)C(=O)c1c(CC)nc2n1CCN2c1c(C)cc(C)cc1C [Example 26, 2-Ethyl-7-(2,4,6-trimethyl-phenyl)-6,7-dihydro-5H-imidazo[1,2-a]imidazole-3-carboxylic acid (3-fluoro-benzyl)-propyl-amide] | < 10000 |
| CCc1nc2n(c1C(=O)N(CC1CC1)CC(F)(F)F)CCN2c1c(C)cc(C)cc1Cl [Example 27, 7-(2-Chloro-4,6-dimethyl-phenyl)-2-ethyl-6,7-dihydro-5H-imidazo[1,2-a]imidazole-3-carboxylic acid cyclopropylmethyl-(2,2,2-trifluoro-ethyl)-amide] | < 100 |
| CCc1nc2n(c1C(=O)N(CCC(F)(F)F)CC1CC1)CCN2c1c(C)cc(C)cc1Cl [Example 29, 7-(2-Chloro-4,6-dimethyl-phenyl)-2-ethyl-6,7-dihydro-5H-imidazo[1,2 a]imidazole-3-carboxylic acid cyclopropylmethyl-(3,3,3-trifluoro-propyl)-amide] | < 1000 |
| CCc1nc2n(c1C(=O)N(CC1CC1)CC(F)(F)F)CCN2c1c(C)cc(Cl)cc1Cl [Example 30, 7-(2,4-Dichloro-6-methyl-phenyl)-2-ethyl-6,7-dihydro-5H-imidazo[1,2-a]imidazole-3-carboxylic acid cyclopropylmethyl-(2,2,2-trifluoro-ethyl)-amide] | < 100 |
| CCc1nc2n(c1C(=O)N(CC1CC1)CC(F)(F)C(F)(F)F)CCN2c1c(C)cc(Cl)cc1Cl [Example 32, 7-(2,4-Dichloro-6-methyl-phenyl)-2-ethyl-6,7-dihydro-5H-imidazo[1,2-a]imidazole-3-carboxylic acid cyclopropylmethyl-(2,2,3,3,3-pentafluoro-propyl)-amide] | < 100 |
| CCCN(CC(F)(F)F)C(=O)c1c(CC)nc2n1CCN2c1c(C)cc(Cl)cc1Cl [Example 33, 7-(2,4-Dichloro-6-methyl-phenyl)-2-ethyl-6,7-dihydro-5H-imidazo[1,2-a]imidazole-3-carboxylic acid propyl-(2,2,2-trifluoro-ethyl)-amide] | < 100 |
| CCCN(CCc1ccccc1)C(=O)c1c(CC)nc2n1CCN2c1c(C)cc(C)cc1Br [Example 41, 7-(2-Bromo-4,6-dimethyl-phenyl)-2-ethyl-6,7-dihydro-5H-imidazo[1,2-a]imidazole-3-carboxylic acid phenethyl-propyl-amide] | < 1000 |
| CCCN(CCC(F)(F)F)C(=O)c1c(CC)nc2n1CCN2c1c(C)cc(C)cc1Br [Example 45, 7-(2-Bromo-4,6-dimethyl-phenyl)-2-ethyl-6,7-dihydro-5H-imidazo[1,2-a]imidazole-3-carboxylic acid propyl-(3,3,3-trifluoro-propyl)-amide] | < 1000 |
| CCCC(O)(CCC)c1c(CC)nc2n1CCN2c1c(C)cc(C)cc1C [Example 47, 4-[2-Ethyl-7-(2,4,6-trimethyl-phenyl)-6,7-dihydro-5H-imidazo[1,2-a]imidazol-3-yl]-heptan-4-ol] | < 1000 |
| CCC=C(CCC)c1c(CC)nc2n1CCN2c1c(C)cc(C)cc1C [Example 48, 6-Ethyl-5-(1-propyl-but-1-enyl)-1-(2,4,6-trimethyl-phenyl)-2,3-dihydro-1H-imidazo[1,2-a]imidazole] | < 100 |

More lines, now with the values ahead:

| Ki [nM] | Structure (SMILES) |
| --- | --- |
| < 100 | CCCN(CC1CC1)C(=O)c1c(CC)nc2n1CCN2c1c(C)cc(C)cc1Cl [Example 28, 7-(2-Chloro-4,6-dimethyl-phenyl)-2-ethyl-6,7-dihydro-5H-imidazo[1,2-a]imidazole-3-carboxylic acid cyclopropylmethyl-propyl-amide] |
| < 100 | CCCN(CC1CC1)C(=O)c1c(CC)nc2n1CCN2c1c(C)cc(Cl)cc1Cl [Example 31, 7-(2,4-Dichloro-6-methyl-phenyl)-2-ethyl-6,7-dihydro-5H-imidazo[1,2-a]imidazole-3-carboxylic acid cyclopropylmethyl-propyl-amide] |
| < 1000 | CCc1nc2n(c1C(=O)N(CC1CC1)CC(F)(F)F)CCN2c1ccc(C(C)C)cc1Br [Example 34, 7-(2-Bromo-4-isopropyl-phenyl)-2-ethyl-6,7-dihydro-5H-imidazo[1,2-a]imidazole-3-carboxylic acid cyclopropylmethyl-(2,2,2-trifluoro-ethyl)-amide] |
| < 10000 | CCCN(CC1CC1)C(=O)c1c(CC)nc2n1CCN2c1ccc(C(C)C)cc1Br [Example 35, 7-(2-Bromo-4-isopropyl-phenyl)-2-ethyl-6,7-dihydro-5H-imidazo[1,2-a]imidazole-3-carboxylic acid cyclopropylmethyl-propyl-amide] |
| < 1000 | CCCN(CC(F)(F)F)C(=O)c1c(CC)nc2n1CCN2c1ccc(C(C)C)cc1Br [Example 36, 7-(2-Bromo-4-isopropyl-phenyl)-2-ethyl-6,7-dihydro-5H-imidazo[1,2-a]imidazole-3-carboxylic acid propyl-(2,2,2-trifluoro-ethyl)-amide] |
| < 1000 | CCc1nc2n(c1C(=O)N(CC1CC1)CC(F)(F)C(F)(F)F)CCN2c1ccc(C(C)C)cc1Br [Example 37, 7-(2-Bromo-4-isopropyl-phenyl)-2-ethyl-6,7-dihydro-5H-imidazo[1,2-a]imidazole-3-carboxylic acid cyclopropylmethyl-(2,2,3,3,3-pentafluoro-propyl)-amide] |
| < 10000 | CCCN(CC1CCC1)C(=O)c1c(CC)nc2n1CCN2c1ccc(C(C)C)cc1Br [Example 38, 7-(2-Bromo-4-isopropyl-phenyl)-2-ethyl-6,7-dihydro-5H-imidazo[1,2-a]imidazole-3-carboxylic acid cyclobutylmethyl-propyl-amide] |
| < 10000 | CCc1nc2n(c1C(=O)N(CCC(F)(F)F)CC1CC1)CCN2c1ccc(C(C)C)cc1Br [Example 39, 7-(2-Bromo-4-isopropyl-phenyl)-2-ethyl-6,7-dihydro-5H-imidazo[1,2-a]imidazole-3-carboxylic acid cyclopropylmethyl-(3,3,3-trifluoro-propyl)-amide] |
| < 10000 | CCc1nc2n(c1C(=O)N(CC)CC1CC1)CCN2c1ccc(C(C)C)cc1Br [Example 40, 7-(2-Bromo-4-isopropyl-phenyl)-2-ethyl-6,7-dihydro-5H-imidazo[1,2-a]imidazole-3-carboxylic acid cyclopropylmethyl-ethyl-amide] |
| < 1000 | CCCN(CC1CCC1)C(=O)c1c(CC)nc2n1CCN2c1c(C)cc(C)cc1Br [Example 42, 7-(2-Bromo-4,6-dimethyl-phenyl)-2-ethyl-6,7-dihydro-5H imidazo[1,2-a]imidazole-3-carboxylic acid cyclobutylmethyl-propyl-amide] |
| < 1000 | CCc1nc2n(c1C(=O)N(CC)CC1CCC1)CCN2c1c(C)cc(C)cc1Br [Example 43, 7-(2-Bromo-4,6-dimethyl-phenyl)-2-ethyl-6,7-dihydro-5H-imidazo[1,2-a]imidazole-3-carboxylic acid cyclobutylmethyl-ethyl-amide] |
| < 100 | CCc1nc2n(c1C(=O)N(CC1CC1)CC(F)(F)F)CCN2c1c(C)cc(C)cc1Br [Example 44, 7-(2-Bromo-4,6-dimethyl-phenyl)-2-ethyl-6,7-dihydro-5H-imidazo[1,2-a]imidazole-3-carboxylic acid cyclopropylmethyl-(2,2,2-trifluoro-ethyl)-amide] |
| < 10000 | CCCN(CC1CC1)C(=O)c1c(CC)nc2n1CCN2c1c(C)cc(C)cc1Br [Example 46, 7-(2-Bromo-4,6-dimethyl-phenyl)-2-ethyl-6,7-dihydro-5H-imidazo[1,2-a]imidazole-3-carboxylic acid cyclopropylmethyl-propyl-amide] |
